Tested on: E. coli
Test: Resazurin fluorescence assay of E. coli mixed with ampicillin
Assay type: cell-based
Details: for fluorescence: 583 nm; for increase in fluorescence signal compared to resazurin alone: 4 hr incubation
Source text: In some examples, the metabolic indicator includes a fluorogenic compound. A non-limiting example of a fluorogenic compound that may be used as a metabolic indicator includes resazurin which is transformed to resorufin when mixed with living cells, such as with bacteria. […] Resorufin is fluorescent, which allows for monitoring the reaction. For example, resorufin is excited at around 540 nanometers (nm) and emits around 590 nm. Living cells, such as bacteria, may be mixed with resazurin for around one to four hours. For example, after incubation and to overcome the background signal, around 7×10^6 colony forming unit per milliliter (cfu/mL) of Escherichia coli may be present.
FIG. 2C illustrates the example apparatus 200 of FIG. 2A while the imaging device is capturing images of the substrate, in accordance with the present disclosure. As described with regards to FIG. 2B, the imaging device 215 may capture images at any point in time, and/or once a statiscially significant signal is detected. Also, as described with regards to FIG. 2A, resazurin reduction results in an increase in fluorescence. Accordingly, as bacterial concentration increases over time, more resazurin reduction results and the result is an increase in fluorescence. Antibiotic combinations that disrupt bacterial growth may therefore have less fluorescence than those combinations which have no effect. […] This conclusion may be obtained, because region 219-4, region 219-3, and region 219-2 each have a greater fluorescence level as compared to region 219-1, which is the result of more resazurin reduction by living cells (such as bacteria).
Background conversion of resazurin to resorufin (in absence of bacteria) can be calibrated out for increased sensitivity and reduction of assay time. Moreover, the minimum inhibitory concentration of the antibiotic (or antibiotic combination) can be measured, because the microfluidic device 211 is capable of dispensing very small volumes of reagents (e.g., antibiotics), as well as precise volumes of reagent combinations. The rate of fluorescence increase can be correlated to bacterial growth rate and thus the inhibition potential of a particular antibiotic can be measured, as illustrated in the graph included in FIG. 2C. This fluorescence readout may be obtained between 3 and 6 hours, and may thus be used for fast determination of combinations of antibiotics for antibiotic treatment.
As illustrated in the top portion of FIG. 6, a MIC test strip from Liofilchem® containing a gradient of ampicillin was applied on an agar plate coated with E. coli. The minimum inhibitory concentration of ampicillin was approximately 2 μg/mL. The E. coli was mixed with various concentrations of ampicillin (0 to 8 μg/mL) and resazurin, and the fluorescence was measured at various times. The concentrations of ampicillin used was 0 μg/mL, 0.25 μg/mL, 0.5 μg/mL, 1 μg/mL, 2 μg/mL, and 8 μg/mL. […] For the sample including E. coli and 8 μg/mL of ampicillin, the fluorescence increased from approximately 10,000 a.u. at 30 minutes, to approximately, 35,000 a.u. at 3 hours and 4 hours. For the sample including E. coli and 0 μg/mL of ampicillin, the fluorescence increased from approximately 10,000 a.u. at 30 minutes, to approximately, 50,000 a.u. at 3 hours and 10^5 a.u at 4 hours. For the sample including E. coli and 0.25 μg/mL of ampicillin, the fluorescence increased from approximately 10,000 a.u. at 30 minutes, to approximately 60,000 a.u. at 3 hours, and approximately 80,000 a.u. at 4 hours. For the sample including E. coli and 0.5 μg/mL of ampicillin, the fluorescence increased from approximately 10,000 a.u. at 30 minutes, to approximately 70,000 a.u. at 3 hours, and approximately 80,000 a.u. at 4 hours. For the sample including E. coli and 1 μg/mL of ampicillin, the fluorescence increased from approximately 10,000 a.u. at 30 minutes, to approximately 75,000 a.u. at 3 hours, and approximately 10^5 a.u. at 4 hours. […]

With CC1(C)S[C@@H]2[C@H](NC(=O)[C@H](N)c3ccccc3)C(=O)N2[C@H]1C(=O)O [ampicillin] the fluorescence (E. coli + 0.25 μg/mL ampicillin + resazurin, 30 minutes) was “approximately 10,000 a.u”, the fluorescence (E. coli + 0.25 μg/mL ampicillin + resazurin, 3 hours) was “approximately 60,000 a.u” and the fluorescence (E. coli + 0.25 μg/mL ampicillin + resazurin, 4 hours) was “approximately 80,000 a.u”. For the same compound, the fluorescence (E. coli + 0.5 μg/mL ampicillin + resazurin, 30 minutes) was “approximately 10,000 a.u”, the fluorescence (E. coli + 0.5 μg/mL ampicillin + resazurin, 3 hours) was “approximately 70,000 a.u” and the fluorescence (E. coli + 0.5 μg/mL ampicillin + resazurin, 4 hours) was “approximately 80,000 a.u”. For the same compound, the fluorescence (E. coli + 1 μg/mL ampicillin + resazurin, 30 minutes) was “approximately 10,000 a.u”, the fluorescence (E. coli + 1 μg/mL ampicillin + resazurin, 3 hours) was “approximately 75,000 a.u” and the fluorescence (E. coli + 2 μg/mL ampicillin + resazurin, 30 minutes) was “approximately 10,000 a.u”. The fluorescence (E. coli + 2 μg/mL ampicillin + resazurin, 3 hours) was “approximately 75,000 a.u”, the fluorescence (E. coli + 8 μg/mL ampicillin + resazurin, 30 minutes) was “approximately 10,000 a.u” and the fluorescence (E. coli + 8 μg/mL ampicillin + resazurin, 3 hours) was ~35,000 a.u. The fluorescence (E. coli + 8 μg/mL ampicillin + resazurin, 4 hours) was ~35,000 a.u, the “increase in fluorescence signal compared to resazurin alone” value ([ampicillin]<2 μg/mL) was 6 × and the “increase in fluorescence signal compared to resazurin alone” value (ampicillin 8 μg/mL) was 2 ×.
